The record followed here is PubChem BioAssay AID1259407 (Chemical Carcinogenesis Research Information System (CCRIS), 2018).

This data set relates to CCRIS mutagenicity, Ames/micronucleus/aberration tests. As to the kind of experiment: CCRIS mutagenicity studies.
The mark [1] stands for this setting: Test System: AMES SALMONELLA TYPHIMURIUM, Strain/Indicator: TA1535, Metabolic Activation: NONE, Method: PREINCUBATION
The mark [2] stands for this setting: Test System: AMES SALMONELLA TYPHIMURIUM, Strain/Indicator: TA1537, Metabolic Activation: NONE, Method: PREINCUBATION

Activity calls are given as the source filed them. No rule for the calls is given here.

On to `CCCCCCCCCc1ccc(O)cc1`, for which the mutagenic call is “inactive; negative” (Test System: AMES SALMONELLA TYPHIMURIUM, Strain/Indicator: TA97, Metabolic Activation: NONE, Method: PREINCUBATION); “inactive; negative” (Test System: AMES SALMONELLA TYPHIMURIUM, Strain/Indicator: TA97, Metabolic Activation: S-9, Method: PREINCUBATION); “inactive; negative” (Test System: AMES SALMONELLA TYPHIMURIUM, Strain/Indicator: TA98, Metabolic Activation: RAT, LIVER, S-9, KC 500, Method: PREINCUBATION); “inactive; negative” (Test System: AMES SALMONELLA TYPHIMURIUM, Strain/Indicator: TA98, Metabolic Activation: RAT, LIVER, S-9, SODIUM PHENOBARBITAL AND 5,6-BENZOFLAVONE, Method: PREINCUBATION); “inactive; negative” (Test System: AMES SALMONELLA TYPHIMURIUM, Strain/Indicator: TA98, Metabolic Activation: S-9, Method: PREINCUBATION); “inactive; negative” (Test System: AMES SALMONELLA TYPHIMURIUM, Strain/Indicator: TA100, Metabolic Activation: RAT, LIVER, S-9, KC 500, Method: PREINCUBATION). Also, the mutagenic call was “inactive; negative” (Test System: AMES SALMONELLA TYPHIMURIUM, Strain/Indicator: TA100, Metabolic Activation: RAT, LIVER, S-9, SODIUM PHENOBARBITAL AND 5,6-BENZOFLAVONE, Method: PREINCUBATION); “inactive; negative” (Test System: AMES SALMONELLA TYPHIMURIUM, Strain/Indicator: TA100, Metabolic Activation: S-9, Method: PREINCUBATION); “inactive; negative” (Test System: AMES SALMONELLA TYPHIMURIUM, Strain/Indicator: TA102, Metabolic Activation: RAT, LIVER, S-9, SODIUM PHENOBARBITAL AND 5,6-BENZOFLAVONE, Method: PREINCUBATION); “inactive; negative” (Test System: AMES SALMONELLA TYPHIMURIUM, Strain/Indicator: TA102, Metabolic Activation: S-9, Method: PREINCUBATION); “inactive; negative” (Test System: AMES SALMONELLA TYPHIMURIUM, Strain/Indicator: TA104, Metabolic Activation: NONE, Method: PREINCUBATION); “inactive; negative” (Test System: AMES SALMONELLA TYPHIMURIUM, Strain/Indicator: TA104, Metabolic Activation: RAT, LIVER, S-9, SODIUM PHENOBARBITAL AND 5,6-BENZOFLAVONE, Method: PREINCUBATION). Moreover, the mutagenic call is, setting by setting: (Test System: AMES SALMONELLA TYPHIMURIUM, Strain/Indicator: TA104, Metabolic Activation: S-9, Method: PREINCUBATION) “inactive; negative”; under setting [1], “inactive; negative”; (Test System: AMES SALMONELLA TYPHIMURIUM, Strain/Indicator: TA1535, Metabolic Activation: RAT, LIVER, S-9, KC 500, Method: PREINCUBATION) “inactive; negative”; (Test System: AMES SALMONELLA TYPHIMURIUM, Strain/Indicator: TA1535, Metabolic Activation: RAT, LIVER, S-9, SODIUM PHENOBARBITAL AND 5,6-BENZOFLAVONE, Method: PREINCUBATION) “inactive; negative”; under setting [2], “inactive; negative”; (Test System: AMES SALMONELLA TYPHIMURIUM, Strain/Indicator: TA1537, Metabolic Activation: RAT, LIVER, S-9, KC 500, Method: PREINCUBATION) “inactive; negative”. Also, the mutagenic call is “inactive; negative” (Test System: AMES SALMONELLA TYPHIMURIUM, Strain/Indicator: TA1537, Metabolic Activation: RAT, LIVER, S-9, SODIUM PHENOBARBITAL AND 5,6-BENZOFLAVONE, Method: PREINCUBATION); “inactive; negative” (Test System: AMES SALMONELLA TYPHIMURIUM, Strain/Indicator: TA1538, Metabolic Activation: NONE, Method: PREINCUBATION); “inactive; negative” (Test System: AMES SALMONELLA TYPHIMURIUM, Strain/Indicator: TA1538, Metabolic Activation: RAT, LIVER, S-9, KC 500, Method: PREINCUBATION); “inactive; negative” (Test System: E. COLI, Strain/Indicator: WP2UVRA/PKM101, Metabolic Activation: NONE, Method: PREINCUBATION); “inactive; negative” (Test System: E. COLI, Strain/Indicator: WP2UVRA/PKM101, Metabolic Activation: RAT, LIVER, S-9, SODIUM PHENOBARBITAL AND 5,6-BENZOFLAVONE, Method: PREINCUBATION); “inactive; negative” (Test System: E. COLI, Strain/Indicator: WP2 UVRA, Metabolic Activation: NONE, Method: PREINCUBATION). Further, the mutagenic call is, setting by setting: (Test System: E. COLI, Strain/Indicator: WP2UVRA, Metabolic Activation: NONE, Method: PREINCUBATION) “inactive; negative”; (Test System: E. COLI, Strain/Indicator: WP2 UVRA, Metabolic Activation: RAT, LIVER, S-9, KC 500, Method: PREINCUBATION) “inactive; negative”; (Test System: E. COLI, Strain/Indicator: WP2UVRA, Metabolic Activation: RAT, LIVER, S-9, SODIUM PHENOBARBITAL AND 5,6-BENZOFLAVONE, Method: PREINCUBATION) “inactive; negative”.
Regarding `CC12C=CC(C1)C1C(=O)OC(=O)C12` (stereo unspecified), the mutagenic call reads like this: (Test System: Ames Salmonella typhimurium, Strain/Indicator: TA98, Metabolic Activation: None, Method: Preincubation) “inactive; negative”; (Test System: Ames Salmonella typhimurium, Strain/Indicator: TA98, Metabolic Activation: Rat, Liver, S-9, Phenobarbital and 5,6-benzoflavone, Method: Preincubation) “inactive; negative”; (Test System: Ames Salmonella typhimurium, Strain/Indicator: TA100, Metabolic Activation: None, Method: Preincubation) “inactive; negative”; (Test System: Ames Salmonella typhimurium, Strain/Indicator: TA100, Metabolic Activation: Rat, Liver, S-9, Phenobarbital and 5,6-benzoflavone, Method: Preincubation) “inactive; negative”; (Test System: Ames Salmonella typhimurium, Strain/Indicator: TA1535, Metabolic Activation: None, Method: Preincubation) “inactive; negative”; (Test System: Ames Salmonella typhimurium, Strain/Indicator: TA1535, Metabolic Activation: Rat, Liver, S-9, Phenobarbital and 5,6-benzoflavone, Method: Preincubation) “inactive; negative”. The mutagenic call reads like this: (Test System: Ames Salmonella typhimurium, Strain/Indicator: TA1537, Metabolic Activation: None, Method: Preincubation) “inactive; negative”; (Test System: Ames Salmonella typhimurium, Strain/Indicator: TA1537, Metabolic Activation: Rat, Liver, S-9, Phenobarbital and 5,6-benzoflavone, Method: Preincubation) “inactive; negative”; (Test System: E. coli, Strain/Indicator: WP2uvrA/pKM101, Metabolic Activation: None, Method: Preincubation) “inactive; negative”; (Test System: E. coli, Strain/Indicator: WP2uvrA/pKM101, Metabolic Activation: Rat, Liver, S-9, Phenobarbital and 5,6-benzoflavone, Method: Preincubation) “inactive; negative”.
With `CCCCN`, the mutagenic call (Test System: AMES SALMONELLA TYPHIMURIUM, Strain/Indicator: TA98, Metabolic Activation: HAMSTER, LIVER, S-9, AROCLOR 1254 (10%), Method: PREINCUBATION) is “inactive; negative”; the mutagenic call (Test System: AMES SALMONELLA TYPHIMURIUM, Strain/Indicator: TA98, Metabolic Activation: NONE, Method: PREINCUBATION) is “inactive; negative”; the mutagenic call (Test System: AMES SALMONELLA TYPHIMURIUM, Strain/Indicator: TA98, Metabolic Activation: RAT, LIVER, S-9, AROCLOR 1254 (10%), Method: PREINCUBATION) is “inactive; negative”; the mutagenic call (Test System: AMES SALMONELLA TYPHIMURIUM, Strain/Indicator: TA100, Metabolic Activation: HAMSTER, LIVER, S-9, AROCLOR 1254 (10%), Method: PREINCUBATION) was “inactive; negative”; the mutagenic call (Test System: AMES SALMONELLA TYPHIMURIUM, Strain/Indicator: TA100, Metabolic Activation: NONE, Method: PREINCUBATION) was “inactive; negative”; the mutagenic call (Test System: AMES SALMONELLA TYPHIMURIUM, Strain/Indicator: TA100, Metabolic Activation: RAT, LIVER, S-9, AROCLOR 1254 (10%), Method: PREINCUBATION) is “inactive; negative”. For the same compound, the mutagenic call by setting is: (Test System: AMES SALMONELLA TYPHIMURIUM, Strain/Indicator: TA1535, Metabolic Activation: HAMSTER, LIVER, S-9, AROCLOR 1254 (10%), Method: PREINCUBATION) “inactive; negative”; under setting [1], “inactive; negative”; (Test System: AMES SALMONELLA TYPHIMURIUM, Strain/Indicator: TA1535, Metabolic Activation: RAT, LIVER, S-9, AROCLOR 1254 (10%), Method: PREINCUBATION) “inactive; negative”; (Test System: AMES SALMONELLA TYPHIMURIUM, Strain/Indicator: TA1537, Metabolic Activation: HAMSTER, LIVER, S-9, AROCLOR 1254 (10%), Method: PREINCUBATION) “inactive; negative”; under setting [2], “inactive; negative”; (Test System: AMES SALMONELLA TYPHIMURIUM, Strain/Indicator: TA1537, Metabolic Activation: RAT, LIVER, S-9, AROCLOR 1254 (10%), Method: PREINCUBATION) “inactive; negative”.
Consider `Clc1ccc(C(c2ccccc2Cl)C(Cl)(Cl)Cl)cc1` (stereo unspecified), for which the mutagenic call (End Point: IN VIVO CHROMOSOMAL ABERRATIONS, Test System: MAMMARY GLAND CELLS USING DUAL PROBE FISH, Species: RAT, Strain/Sex: SPRAGUE-DAWLEY/FEMALE, Route: SUBCUTANEOUS INJECTION) is “active; positive (polyploidy)” and the mutagenic call (End Point: IN VIVO MICRONUCLEUS, Test System: MAMMARY GLAND CELLS, Species: RAT, Strain/Sex: SPRAGUE-DAWLEY/FEMALE, Route: SUBCUTANEOUS INJECTION) was “inactive; negative”.
